For 39 compounds, EC50 results are on record in patent US12516016B2, “GPX4 inhibitors, pharmaceutical compositions thereof, and their use for treating GPX4-mediated diseases” (EUBULUS BIOTHERAPEUTICS (HONG KONG) LIMITED, priority 2020, dated 2026).

The test system of the first test is hepatocellular carcinoma cell line Hub-7. Kind of test: Cell proliferation assay (CELL-TITER GLO cell viability). The class given is cell-based. The note with it: 24 h, Hub-7 cells, 24 h incubation, read-out: Inhibition of Cell Proliferation EC50. In a few lines:
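[…] cells (4,000/well) seeded overnight, then exposed 24 h to compound from 10 μM in 3-fold serial dilutions. Viability read by CELL-TITER GLO luminescence; EC50 values derived.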
Turning to `C#CC(=O)N(c1cccc(C(=O)OC)c1)C(C(=O)NCc1ccccc1)c1cccs1` (stereo not shown) [A73, Methyl 3-(N-(2-(benzylamino)-2-oxo-1-(thiophen-2-yl)ethyl)propiolamido)-benzoate], the EC50 is at most 100 nM.
Take `C#CC(=O)N(c1ccc(CO)cc1)C(C(=O)NCc1ccccc1)c1ccc(N)cc1` (stereo not shown) [A67, N-(1-(4-Aminophenyl)-2-(benzylamino)-2-oxoethyl)-N-(4-(hydroxymethyl)-phenyl)propiolamide]: the EC50 lay within 500 to 2000 nM.
On to `C#CC(=O)N(c1cccc(Cl)c1F)C(C(=O)NCc1ccccc1)c1cccc(N)c1` (stereo not shown) [A41, N-(1-(3-Aminophenyl)-2-(benzylamino)-2-oxoethyl)-N-(3-chloro-2-fluoro-phenyl)propiolamide], for which the EC50 was at most 100 nM.
For the compound `COc1ccc(N(C(=O)CCl)C(C)C(=O)NCCc2ccccc2)cc1Cl` (stereo not shown) [C14], the EC50 was in the range of 500 to 2000 nM.
Still for that read-out and setting: the figure for `C#CC(=O)N(c1cccc(C(=O)OC)c1)C(C(=O)NCc1ccccc1)c1ccc(N)cc1` (stereo not shown) [A54, Methyl 3-(N-(1-(4-aminophenyl)-2-(benzylamino)-2-oxoethyl)propiolamido)-benzoate] is at most 100 nM.
For the compound `C#CC(=O)N(c1cccc(Cl)c1)C1(C(=O)NCc2ccccc2)COC1` [A86, N-Benzyl-3-(N-(3-chlorophenyl)propiolamido)oxetane-3-carboxamide], the EC50 was 100 to 500 nM.
As to `C=C(F)C(=O)N(c1ccc(OC)c(Cl)c1)C(C(=O)NCc1ccccc1)c1cccc(N)c1` (stereo not shown) [B4, N-(1-(3-Aminophenyl)-2-(benzylamino)-2-oxoethyl)-N-(3-chloro-4-methoxy-phenyl)-2-fluoroacrylamide], the EC50 is over 10000 nM.
For the compound `C#CC(=O)N(c1cccc(Cl)c1)C1(C(=O)NCC(=O)NCc2ccccc2Cl)CCOCC1` [A187, N-(2-((2-Chlorobenzyl)amino)-2-oxoethyl)-4-(N-(3-chlorophenyl)propiolamido)-tetrahydro-2H-pyran-4-carboxamide], the EC50 was 100 to 500 nM.
The same measure, in the same setting: the figure for `N#CCC(=O)N(c1cccc(Cl)c1)C1(C(=O)NCc2ccccc2)CCOCC1` [D7, N-Benzyl-4-(N-(3-chlorophenyl)-2-cyanoacetamido)tetrahydro-2H-pyran-4-carboxamide] is over 10000 nM.
With `C#CC(=O)N(c1ccc(OC)cc1)C(C(=O)NCc1ccccc1)c1ccc(N)cc1` (stereo not shown) [A60, N-(1-(4-Aminophenyl)-2-(benzylamino)-2-oxoethyl)-N-(4-methoxyphenyl)-propiolamide], the EC50 was at most 100 nM.
With `C#CC(=O)N(c1ccc2c(c1)ncn2C)C1(C(=O)NCc2ccccc2)CCOCC1` [A156, N-Benzyl-4-(N-(1-methyl-1H-benzo[d]imidazol-5-yl)propiolamido)tetrahydro-2H-pyran-4-carboxamide], the EC50 lay within 500 to 2000 nM.
For the compound `C#CC(=O)N(c1cc2c(cc1I)OCO2)C(C(=O)NCc1ccccc1)c1ccccc1` (stereo not shown) [A146, N-(2-(Benzylamino)-2-oxo-1-phenylethyl)-N-(6-iodobenzo[d][1,3]dioxol-5-yl)-propiolamide], the EC50 was at most 100 nM.
`Cn1ncc2cc(N(C(=O)C3CO3)C3(C(=O)NCc4ccccc4)CCOCC3)ccc21` (stereo not shown) [C30, N-Benzyl-4-(N-(1-methyl-1H-indazol-5-yl)oxirane-2-carboxamido)tetrahydro-2H-pyran-4-carboxamide]: the EC50 was over 10000 nM.
Still for that read-out and setting: the figure for `C#CC(=O)N(c1ccc(Cl)cc1)C(C(=O)NC(C)(C)C)c1cccc(N)c1` (stereo not shown) [A119] is at most 100 nM.
As to `O=C(C#CCO)N(c1cccc(Cl)c1)C1(C(=O)NCc2ccccc2)CCOCC1` [A129, N-Benzyl-4-(N-(3-chlorophenyl)-4-hydroxybut-2-ynamido)tetrahydro-2H-pyran-4-carboxamide], the EC50 is over 10000 nM.
Same read-out and setting: the figure for `CC#CC(=O)N(c1ccc2c(cnn2C)c1)C1(C(=O)NCc2ccccc2)CCOCC1` [A125, N-Benzyl-4-(N-(1-methyl-1H-indazol-5-yl)but-2-ynamido)tetrahydro-2H-pyran-4-carboxamide] is over 10000 nM; for `C#CC(=O)N(c1cccc(Cl)c1)C1(C(=O)NCC(=O)NCc2ccccc2)CCOCC1` [A188, N-(2-(Benzylamino)-2-oxoethyl)-4-(N-(3-chlorophenyl)propiolamido)tetrahydro-2H-pyran-4-carboxamide] it is 100 to 500 nM; for `C#CC(=O)N(c1ccc2c(c1)OC(F)(F)O2)C(C(=O)NCc1ccccc1)c1ccccc1` (stereo not shown) [A99, N-(2-(Benzylamino)-2-oxo-1-phenylethyl)-N-(2,2-difluorobenzo[d][1,3]dioxol-5-yl)propiolamide] it is at most 100 nM.
Turning to `C#CC(=O)N(c1cccc(-c2cc[nH]n2)c1)C1(C(=O)NCc2ccccc2)CCOCC1` [A135, 4-(N-(3-(1H-Pyrazol-3-yl)phenyl)propiolamido)-N-benzyltetrahydro-2H-pyran-4-carboxamide], the EC50 fell in the range of 100 to 500 nM.
Take `O=C(NCCc1ccccc1)C(c1ccc([N+](=O)[O-])cc1)N(Cc1cccs1)C(=O)CCl` (stereo not shown) [C8, 2-Chloro-N-(1-(4-nitrophenyl)-2-oxo-2-(phenethylamino)ethyl)-N-(thiophen-2-ylmethyl)acetamide]: the EC50 is 2000 to 10000 nM.
Take `C#CC(=O)N(Cc1cccc(O)c1)C1(C(=O)NCc2ccccc2)CCCC(C(=O)OC)C1` (stereo not shown) [A167, Methyl 3-(benzylcarbamoyl)-3-(N-(3-hydroxybenzyl)propiolamido)cyclohexane-1-carboxylate]: the EC50 is 100 to 500 nM.
The same measure, in the same setting: the figure for `C#CC(=O)N(c1ccc(OC)cc1)C(C(=O)NC(C)(C)C)c1ccc(N)cc1` (stereo not shown) [A18, N-(1-(4-Aminophenyl)-2-(tert-butylamino)-2-oxoethyl)-N-(4-methoxyphenyl)-propiolamide] is 500 to 2000 nM; for `O=C(C#CCO)N(c1cc(Cl)ccc1Cl)C1(C(=O)NCc2ccccc2)CCOCC1` [A130, N-Benzyl-4-(N-(2,5-dichlorophenyl)-4-hydroxybut-2-ynamido)tetrahydro-2H-pyran-4-carboxamide] it is over 10000 nM; for `C#CC(=O)N(c1cccc(NS(C)(=O)=O)c1)C(C(=O)NCc1ccccc1)c1cccc(N)c1` (stereo not shown) [A42, N-(1-(3-Aminophenyl)-2-(benzylamino)-2-oxoethyl)-N-(3-(methylsulfonamido)-phenyl)propiolamide] it is 2000 to 10000 nM.
For `C#CC(=O)N(c1ccc(O)cc1)C(C(=O)NC(C)(C)C)c1cccc(N)c1` (stereo not shown) [A27, N-(1-(3-Aminophenyl)-2-(tert-butylamino)-2-oxoethyl)-N-(4-hydroxyphenyl)-propiolamide], the EC50 is 2000 to 10000 nM.
With `C#CC(=O)N(c1cccc(F)c1)C(C(=O)NCc1ccccc1)c1ccc(N)cc1` (stereo not shown) [A59, N-(1-(4-Aminophenyl)-2-(benzylamino)-2-oxoethyl)-N-(3-fluorophenyl)-propiolamide], the EC50 is 100 to 500 nM.
Regarding `C#CC(=O)N(c1ccc(N)cc1)C(C(=O)NC(C)(C)C)c1ccc(N)cc1` (stereo not shown) [A9, N-(4-Aminophenyl)-N-(1-(4-aminophenyl)-2-(tert-butylamino)-2-oxoethyl)-propiolamide], the EC50 is 2000 to 10000 nM.
With `C#CC(=O)N(c1ccc(C(=O)OC)cc1)C(C(=O)NC(C)(C)C)c1ccc(N)cc1` (stereo not shown) [A14, Methyl 4-(N-(1-(4-aminophenyl)-2-(tert-butylamino)-2-oxoethyl)-propiolamido)-benzoate], the EC50 was at most 100 nM.
In the case of `C#CC(=O)N(c1ccc2c(c1)OCO2)C(C(=O)NCc1ccccc1)c1ccccc1` (stereo not shown) [A96, N-(Benzo[d][1,3]dioxol-5-yl)-N-(2-(benzylamino)-2-oxo-1-phenylethyl)-propiolamide], the EC50 was at most 100 nM.
Take `O=C(NCCc1ccccc1)C(c1ccc([N+](=O)[O-])cc1)N(Cc1ccccc1)C(=O)CCl` (stereo not shown) [C12, N-Benzyl-2-chloro-N-(1-(4-nitrophenyl)-2-oxo-2-(phenethylamino)ethyl)-acetamide]: the EC50 is 2000 to 10000 nM.
On to `C#CC(=O)N(CCc1ccccc1)C1(C(=O)NCc2ccccc2)CCCC(C(=O)O)C1` (stereo not shown) [A169, 3-(Benzylcarbamoyl)-3-(N-phenethylpropiolamido)cyclohexane-1-carboxylic acid], for which the EC50 was over 10000 nM.
Consider `C#CC(=O)N(c1ccc(NS(C)(=O)=O)cc1)C(C(=O)NCc1ccccc1)c1ccc(N)cc1` (stereo not shown) [A71, N-(1-(4-Aminophenyl)-2-(benzylamino)-2-oxoethyl)-N-(4-(methylsulfonamido)-phenyl)propiolamide], for which the EC50 lay within 2000 to 10000 nM.
The same measure, in the same setting: the figure for `C#CC(=O)N(c1cccc(Cl)c1)C1(C(=O)NCC(=O)NCc2ccccc2C#N)CCOCC1` [A189, 4-(N-(3-Chlorophenyl)propiolamido)-N-(2-((2-cyanobenzyl)amino)-2-oxoethyl)-tetrahydro-2H-pyran-4-carboxamide] is 100 to 500 nM; for `C#CC(=O)N(c1cccc(N)c1)C(C(=O)NCc1ccccc1)c1ccc(N)cc1` (stereo not shown) [A70, N-(3-Aminophenyl)-N-(1-(4-aminophenyl)-2-(benzylamino)-2-oxoethyl)-propiolamide] it is 500 to 2000 nM.
For `C#CC(=O)N(C1CCC1)C1(C(=O)NCc2ccccc2)CCCC(C(=O)OC)C1` (stereo not shown) [A168, Methyl 3-(benzylcarbamoyl)-3-(N-cyclobutylpropiolamido)cyclohexane-1-carboxylate], the EC50 was 500 to 2000 nM.
As for `C=CC(=O)N(c1ccc(OC)c(Cl)c1)C(C(=O)NCc1ccccc1)c1cccc(N)c1` (stereo not shown) [B2, N-(2-(benzylamino)-1-(3-aminophenyl)-2-oxoethyl)-N-(3-chloro-4-methoxyphenyl)acrylamide], the EC50 is over 10000 nM.
Turning to `C#CC(=O)N(c1cccc(Cl)c1)C(C(=O)NCc1ccc(F)cc1)c1ccccc1` (stereo not shown) [A115, N-(3-Chlorophenyl)-N-(2-((4-fluorobenzyl)amino)-2-oxo-1-phenylethyl)-propiolamide], the EC50 is at most 100 nM.
Same read-out and setting: the figure for `C#CC(=O)N(c1cccn2cnnc12)C(C(=O)NCc1ccccc1)c1ccccc1` (stereo not shown) [A147, N-([1,2,4]Triazolo[4,3-a]pyridin-8-yl)-N-(2-(benzylamino)-2-oxo-1-phenylethyl)-propiolamide] is 100 to 500 nM.

The test is the same for the next values; noted with them: Hub-7 cells, 24 h incubation, control, read-out: EC50.
Take `COc1ccc(N(C(=O)CCl)C(C(=O)NCCc2ccccc2)c2cccs2)cc1Cl` (stereo not shown) [ML-162, reference compound]: the EC50 came out at 138 nM.

Still in this test, the particulars now being: Hub-7 cells, 24 h incubation, read-out: Inhibition of Cell Proliferation EC50.
Turning to `COc1ccc(N(C(=O)CCl)C(C(=O)NCCc2ccccc2)c2cccs2)cc1Cl` (stereo not shown) [ML-162, reference compound], the EC50 lay within 100 to 500 nM.
